From patent US6337317B1, “Antimicrobial peptides and methods of use thereof” (priority 2000, dated 2002)
Where a SMILES comes first, the peptide text is derived from it.

Experiments:
Human Red Blood Cells = experiment: Hemolytic assay; type: cell-based
Experimental: The toxicity of invention peptides can be assessed using a hemolytic assay in which the ability of the peptides to lyse human red blood cells is assessed (Zhang et al. (1999) Biochemistry 38:8102-8111; and Examples section).
Hemolytic activity of invention peptides was tested against human red blood cells. Freshly collected human blood treated with heparin was centrifuged to remove the buffy coat, and the erythrocytes thereby obtained were washed three times in saline (0.85% NaCl). Serial dilutions of the peptides in saline were prepared in round-bottomed microtiter plates using total volumes of 100 μl. Red blood cells were diluted with saline to 1/25 of a packed cell volume, and 50 μl of cells were added to each well. Plates, while rocking, were incubated at 37° C., and the concentration of the peptide required for lysis after 4 h was taken as the minimal hemolytic concentration.

[1] = test system: E. coli 0111:B4 LPS induced production of IL-6 in RAW macrophages; experiment: Reduction of LPS-induced IL-6 in RAW 264.7 macrophages (ELISA); type: cell-based, murine; details: peptide 20 μg/ml; LPS 100 ng/ml; RAW 264.7; 6 hours
Experimental: The ability of invention peptides to reduce LPS-induced tumor necrosis factor (TNF) production was tested in an in vitro assay. The murine macrophage cell line RAW 264.7 was obtained from American Type Culture Collection (Manassas, Va.) and grown in DMEM medium supplemented with 10% fetal calf serum. The cells were plated at a density of 10^6 cells/well in 24 well plates, incubated overnight, then washed with fresh medium. E. coli 0111 :B4 (100 ng/ml) was added at time 0 to RAW macrophages. Invention peptides […]/m were added at time 0, 30 and 60 minutes and the cells were stimulated for 6 hours. Levels of TNF and interleukin-6 (IL-6) were measured after 6 hours.

P. aeruginosa M2 = experiment: P. aeruginosa infection in neutropenic mouse model; type: in vivo; details: neutropenic CD-1 mice
Experimental: Invention peptides were assayed for their ability to protect against P. aeruginosa infection in a neutropenic mouse mode. Female CD-1 mice, made neutropenic by three injections of cyclophosphamide (see Gough et al., (1996) Infect. Immun. 64:4922-4927) were injected intraperitoneally with a 100% lethal dose of P. aeruginosa M2 (approximately 200 organisms). Thirty minutes later, mice were injected intraperitoneally with invention peptides (200 μg/100 μl) Survival was assessed 24 to 72 hours later.

Compound: CC(C)[C@@H]1NC(=O)[C@H](CCCNC(=N)N)NC(=O)[C@H](Cc2ccccc2)NC(=O)[C@@H](NC(=O)[C@H](Cc2c[nH]c3ccccc23)NC(=O)[C@H](CCCNC(=N)N)NC(=O)[C@@H](N)CCCNC(=N)N)CSSC[C@@H](C(=O)N[C@@H](CCCNC(=N)N)C(N)=O)NC(=O)[C@H](CCCCN)NC(=O)[C@H](CCCNC(=N)N)NC(=O)[C@H](Cc2ccc(O)cc2)NC(=O)[C@@H]2CSSC[C@H](NC1=O)C(=O)N[C@@H](Cc1ccc(O)cc1)C(=O)N[C@@H](CCCNC(=N)N)C(=O)NCC(=O)N[C@@H](Cc1ccccc1)C(=O)N2 [Polyphemusin I] (HELM PEPTIDE1{R.R.W.C.F.R.V.C.Y.R.G.F.C.Y.R.K.C.R.[am]}$PEPTIDE1,PEPTIDE1,4:R3-17:R3|PEPTIDE1,PEPTIDE1,8:R3-13:R3$$$V2.0; N-terminus and C-terminus assumed)
- minimal hemolytic concentration (printed under MIC head) (Human Red Blood Cells; Human Red Blood Cells, lysis after 4 h at 37° C.): 21.3 µg/mL
- hemolytic activity (Human Red Blood Cells; red blood cells): show hemolytic activity
- Inhibition of IL-6 (%) [1]: 84 ± 3%
- Mean Time to Death (P. aeruginosa M2; 200 μg peptide intraperitoneally 30 min after infection): 52 h
- Survival (%), P. aeruginosa infection (P. aeruginosa M2; 200 μg peptide intraperitoneally, groups of 5 mice, assessed 24 to 72 hours): 20%
